Where two headings read alike, the source gives them in different places.
Legend:
[1] = Taste profiling of lemon/lime carbonates and colas; format: in vivo; settings: HFCS 10%, aspartame 500 ppm, sucralose 200 ppm, blends 30.8 ppm/5.0%; for Average Score: score 1, poor-5, good, sucrose 10%
Experimental: Cola and lemon/lime beverages were prepared using the following formulations and sweetened with sucrose, HFCS (55% fructose), aspartame, sucralose, monatin (racemic mix described in Example 14), monatin/sucrose, or monatin/HFCS. One part of syrup was added to 5.5 parts carbonated water and evaluated.
Assessments were carried out ‘double blind’ by a panel of trained tasters. The sucrose-sweetened product was identified as the control and all other products randomly coded. Panelists were asked to assess the randomly coded sample relative to the control for the following attributes:
Panelists also were asked assign a score (1; poor-5; good) for the quality of the sweetener system. A summary of the comments generated together with the average score awarded is presented in Tables 12 and 13 for lemon/lime carbonates and colas, respectively. […] Blends of monatin/carbohydrate rated higher. In the cola, monatin was similar to aspartame.

[2] = Sensory evaluation of soft drinks (lemon/lime, orangeade, cola); format: in vivo; settings: Cola; aspartame 550 ppm, sucralose 220 ppm, R,R monatin 45 ppm
Experimental: Beverages (cola, lemon-lime and orange) were formulated and sweetened with aspartame, sucralose or R,R monatin. Qualitative evaluation was carried out.
The term “throw” refers to dilution in water. For example, a throw of “1+4” means 1 part concentrate formulation to 4 parts water. Thus, if a concentrate formulation includes 0.021% wt/vol (i.e., 210 ppm) of R,R monatin, for example, a throw of 1+4 makes a diluted beverage containing 42 ppm (210 ppm/5) R,R monatin.
Final ready-to-drink beverages (after throw) contained sweetener concentrations as follows:
Evaluation of these soft drinks was carried out by a panel (n=6) of assessors who evaluated each set of drinks on separate tasting occasions.

[3] = Sensory stability of monatin and aspartame at pH 2.5, 3.0, 4.0 at 40° C.; format: physicochemical; settings: for Rate constant (k) of sweetness loss / half-life: pseudo-first order assumed; for SEV / Retention of Sweetness: stored 40° C., monatin ~55 ppm, aspartame 400 ppm; for half-life: phosphate/citrate buffer, read-out: Half-life (t½) of sweetness loss (converted)
Experimental: The sensory stability of monatin solutions prepared at pH 2.5, 3.0 and 4.0 and stored at 40° C. was monitored for 100 days. Loss of sweetness from these solutions was compared with the losses of sweetness from aspartame solutions prepared and stored under identical conditions.
The sensory stability of monatin (8% SEV, ˜55 ppm, synthetic blend containing approximately 96% of the 2R,4R/2S, 4S enantiometric pair and 4% of the 2R,4S/2S,4R enantiometric pair) in phosphate/citrate buffers having a pH of 2.5, 3.0, and 4.0 was examined after storage at 40° C. The stability of monatin was compared to that of aspartame (400 ppm) in the same buffers. Three sucrose reference solutions were prepared in the same phosphate/citrate buffers as the monatin and aspartame solutions. All prepared solutions were stored in the dark.
Buffer compositions: pH 2.5 Phosphoric acid (75% solution) 0.127% (w/v) Tri-sodium citrate monohydrate 0.005% (w/v) • pH 3.0 Phosphoric acid (75% solution) 0.092% (w/v) Tri-sodium citrate monohydrate 0.031% (w/v) • pH 4.0 Phosphoric acid (75% solution) 0.071% (w/v) Tri-sodium citrate monohydrate 0.047% (w/v)
The sweetness of each sweetener relative to sucrose was assessed in duplicate by a panel (n=8) of trained sensory evaluators experienced in the sweetness estimation procedure. All samples (in the same buffers) were served in duplicate at a temperature of 22° C.±1° C. Monatin (test) solutions, coded with 3 digit random number codes were presented individually to panelists, in random order. Sucrose reference standards, ranging from 4.0-10.0% (w/v) sucrose, increasing in steps of 0.5% (w/v) sucrose were also provided. Panelists were asked to estimate sweetness by comparing the sweetness of the test solution to the sucrose standards. This was carried out by taking 3 sips of the test solution, followed by a sip of water, followed by 3 sips of sucrose standard followed by a sip of water, etc. Panelists were encouraged to estimate the sweetness to one decimal place, e.g., 6.8, 8.5. A five minute rest period was imposed between evaluating the test solutions. Panelists were also asked to rinse well and eat a cracker to reduce any potential carry over effects.
If a pseudo-first order breakdown reaction is assumed, a plot of logn percentage retention versus time (logn%RTN v. t) allows estimation of the half-life (t½) and rate constant (k) of sweetness loss under any given set of conditions. In so doing, the kinetics of monatin and aspartame sweetness loss may be summarized as follows in Table 25.

[4] = cola, sucrose 10% (control), monatin 80 ppm
[5] = lemon/lime carbonate, sucrose 10% (control), monatin 67 ppm

- Sweetness Retained ([3]; after 100 days storage at pH 2.5 at 40° C.): 29%
- Sweetness Retained ([3]; after 100 days storage at pH 3.0 at 40° C.): 58%
- Sweetness Retained ([3]; after 100 days storage at pH 4.0 at 40° C.): 78%
- Rate constant (k) of sweetness loss ([3]; pH 2.5, 40° C.): 0.011 day⁻¹
- Retention of Sweetness ([3]; pH 2.5 buffer, day 1): 93.3%
- Retention of Sweetness ([3]; pH 2.5 buffer, day 2): 91.2%
- Retention of Sweetness ([3]; pH 2.5 buffer, day 3): 88.4%
- Retention of Sweetness ([3]; pH 2.5 buffer, day 4): 85.2%
- Retention of Sweetness ([3]; pH 2.5 buffer, day 7): 82.7%
- Retention of Sweetness ([3]; pH 2.5 buffer, day 8): 81.4%
- Retention of Sweetness ([3]; pH 2.5 buffer, day 9): 80.1%
- Retention of Sweetness ([3]; pH 2.5 buffer, day 11): 78.6%
- Retention of Sweetness ([3]; pH 2.5 buffer, day 50): 62.7%
- Retention of Sweetness ([3]; pH 2.5 buffer, day 100): 28.6%
- Rate constant (k) of sweetness loss ([3]; pH 3.0, 40° C.): 0.006 day⁻¹
- Retention of Sweetness ([3]; pH 3.0 buffer, day 1): 99.6%
- Retention of Sweetness ([3]; pH 3.0 buffer, day 2): 93.2%
- Retention of Sweetness ([3]; pH 3.0 buffer, day 3): 91.4%
- Retention of Sweetness ([3]; pH 3.0 buffer, day 4): 91.6%
- Retention of Sweetness ([3]; pH 3.0 buffer, day 7): 85.3%
- Retention of Sweetness ([3]; pH 3.0 buffer, day 8): 83.8%
- Retention of Sweetness ([3]; pH 3.0 buffer, day 9): 83.1%
- Retention of Sweetness ([3]; pH 3.0 buffer, day 11): 83.1%
- Retention of Sweetness ([3]; pH 3.0 buffer, day 50): 72.3%
- Retention of Sweetness ([3]; pH 3.0 buffer, day 100): 57.9%
- Rate constant (k) of sweetness loss ([3]; pH 4.0, 40° C.): 0.003 day⁻¹
- Retention of Sweetness ([3]; pH 4.0 buffer, day 3): 95.7%
- Retention of Sweetness ([3]; pH 4.0 buffer, day 8): 86.8%
- Retention of Sweetness ([3]; pH 4.0 buffer, day 11): 85.9%
- Retention of Sweetness ([3]; pH 4.0 buffer, day 17): 82.4%
- Retention of Sweetness ([3]; pH 4.0 buffer, day 24): 84.5%
- Retention of Sweetness ([3]; pH 4.0 buffer, day 50): 82.9%
- Retention of Sweetness ([3]; pH 4.0 buffer, day 100): 78.4%
- half-life ([3]; pH 2.5, 40° C.): 65 days
- half-life ([3]; pH 3.0, 40° C.): 115 days
- half-life ([3]; pH 4.0, 40° C.): 230 days
Compound: NC(CC(O)(Cc1c[nH]c2ccccc12)C(=O)O)C(=O)O (racemic) [Monatin, 2-hydroxy-2-(indol-3-ylmethyl)-4-aminoglutaric acid]
- Aftertaste [1, 4]: Some lingering
- Mouthfeel [1, 4]: Thinner than control.
- Aftertaste [1, 5]: Quite clean, slight
- Mouthfeel [1, 5]: Slightly less
- Sweetness Profile [1, 5]: Slight delay in onset -
- Average Score ([1]; cola, monatin 80 ppm): 2.9
- Average Score ([1]; lemon/lime carbonate, monatin 67 ppm): 4.0
- Comments (sensory evaluation) [2]: Overall, judged quite similar qualitatively
- SEV ([3]; pH 2.5 buffer, day 0): 7.35 % sucrose
- SEV ([3]; pH 2.5 buffer, day 1): 6.86 % sucrose
- SEV ([3]; pH 2.5 buffer, day 2): 6.70 % sucrose
- SEV ([3]; pH 2.5 buffer, day 3): 6.50 % sucrose
- SEV ([3]; pH 2.5 buffer, day 4): 6.26 % sucrose
- SEV ([3]; pH 2.5 buffer, day 7): 6.08 % sucrose
- SEV ([3]; pH 2.5 buffer, day 8): 5.98 % sucrose
- SEV ([3]; pH 2.5 buffer, day 9): 5.89 % sucrose
- SEV ([3]; pH 2.5 buffer, day 11): 5.78 % sucrose
- SEV ([3]; pH 2.5 buffer, day 50): 4.61 % sucrose
- SEV ([3]; pH 2.5 buffer, day 100): 2.10 % sucrose
- SEV ([3]; pH 3.0 buffer, day 0): 7.08 % sucrose
- SEV ([3]; pH 3.0 buffer, day 1): 7.05 % sucrose
- SEV ([3]; pH 3.0 buffer, day 2): 6.60 % sucrose
- SEV ([3]; pH 3.0 buffer, day 3): 6.47 % sucrose
- SEV ([3]; pH 3.0 buffer, day 4): 6.49 % sucrose
- SEV ([3]; pH 3.0 buffer, day 7): 6.04 % sucrose
- SEV ([3]; pH 3.0 buffer, day 8): 5.93 % sucrose
- SEV ([3]; pH 3.0 buffer, day 9): 5.88 % sucrose
- SEV ([3]; pH 3.0 buffer, day 11): 5.88 % sucrose
- SEV ([3]; pH 3.0 buffer, day 50): 5.12 % sucrose
- SEV ([3]; pH 3.0 buffer, day 100): 4.10 % sucrose
- SEV ([3]; pH 4.0 buffer, day 0): 7.40 % sucrose
- SEV ([3]; pH 4.0 buffer, day 3): 7.08 % sucrose
- SEV ([3]; pH 4.0 buffer, day 8): 6.42 % sucrose
- SEV ([3]; pH 4.0 buffer, day 11): 6.36 % sucrose
- SEV ([3]; pH 4.0 buffer, day 17): 6.10 % sucrose
- SEV ([3]; pH 4.0 buffer, day 24): 6.25 % sucrose
- SEV ([3]; pH 4.0 buffer, day 50): 6.14 % sucrose
- SEV ([3]; pH 4.0 buffer, day 100): 5.80 % sucrose

Reference: patent US20050106305A1, “Beverage compositions comprising monatin and methods of making same” (Cargill, Inc., priority 2003, published 2005)
